Carcinogen call data for 7 compounds are collected here from PubChem BioAssay AID1259411 (Chemical Carcinogenesis Research Information System (CCRIS), 2018).

Calls of active or inactive are those of the source. The rule behind the calls is not given here.

The series relates to rodent carcinogenicity bioassays, tumor incidence. Put plainly: CCRIS carcinogenicity studies. The method, boiled down:
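NCI-built, expert-reviewed records of carcinogenicity and related test outcomes (mutagenicity, tumor promotion/inhibition) compiled from published and report sources, historical span 1985-2011, not updated.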

With `CCCCCCCCN(C)N=O`, the carcinogen call (Species: HAMSTER, Strain/Sex: SYRIAN/FEMALE, Route: GAVAGE, Dose: 0, 7.4 MG/KG 1/WK FOR 40 WK (TOTAL DOSE: 0; 2.1 MMOL) (STUDY DURATION: LIFETIME), Dose: 0, 7.4 MG/KG 1/WK FOR 40 WK (TOTAL DOSE: 0; 2.1 MMOL) (STUDY DURATION: LIFETIME), Tumor Site: Type of Lesion: LIVER: HEPATOCELLULAR ADENOMA, LUNG: ALVEOLAR/BRONCHIAL ADENOMA, NASAL MUCOSA: ADENOMA, URINARY BLADDER: SARCOMA, UNDIFF, Tumor Site: Type of Lesion: LIVER: HEPATOCELLULAR ADENOMA, LUNG: ALVEOLAR/BRONCHIAL ADENOMA, NASAL MUCOSA: ADENOMA, URINARY BLADDER: SARCOMA, UNDIFF) was “active; positive”; the carcinogen call (Species: HAMSTER, Strain/Sex: SYRIAN/MALE, Route: GAVAGE, Dose: 0, 7.4 MG/KG 1/WK FOR 40 WK (TOTAL DOSE: 0; 2.1 MMOL) (STUDY DURATION: LIFETIME), Dose: 0, 7.4 MG/KG 1/WK FOR 40 WK (TOTAL DOSE: 0; 2.1 MMOL) (STUDY DURATION: LIFETIME), Tumor Site: Type of Lesion: LIVER: HEPATOCELLULAR ADENOMA, CHOLANGIOMA, HEMANGIOSARCOMA, LUNG: ALVEOLAR/ BRONCHIAL ADENOMA, NASAL MUCOSA: ADENOMA, U, Tumor Site: Type of Lesion: LIVER: HEPATOCELLULAR ADENOMA, CHOLANGIOMA, HEMANGIOSARCOMA, LUNG: ALVEOLAR/ BRONCHIAL ADENOMA, NASAL MUCOSA: ADENOMA, U) is “active; positive”; the carcinogen call (Species: RAT, Strain/Sex: F344/MALE, Route: GAVAGE, Dose: 0, 93 MG/ML IN CORN OIL 2/WK FOR 30 WK, STUDY DURATION: 50 WK, Dose: 0, 93 MG/ML IN CORN OIL 2/WK FOR 30 WK, STUDY DURATION: 50 WK, Tumor Site: Type of Lesion: LUNG: ADENOCARCINOMA, ADENOMA, NASAL CAVITY: CARCINOMA, LIVER: HEPATOCELLULAR TUMOR, BLADDER, Tumor Site: Type of Lesion: LUNG: ADENOCARCINOMA, ADENOMA, NASAL CAVITY: CARCINOMA, LIVER: HEPATOCELLULAR TUMOR, BLADDER) is “active; positive”.
Turning to `C=Cc1ccncc1`, the carcinogen call (Species: MOUSE, Strain/Sex: STRAIN-A/FEMALE, Route: INTRAPERITONEAL, Dose: 0, 10 UMOL IN 0.1 ML OLIVE OIL 3/WK FOR 20 DOSES (TOTAL DOSE: 200 UMOL) (STUDY DURATION: 27 WK)) was “inactive; negative”.
As for `CC/C=C/C=C/C=C/C=C/C=C/OC[C@@H](O)CO`, the carcinogen call runs as follows: (Species: MOUSE, Strain/Sex: ICR/FEMALE, Route: INTRAPERITONEAL, Dose: 0, 2.6 MG/KG IN DMSO ON D 1 AND D 3 THEN 0, 5.2 MG/KG IN DMSO ON D 7, 10, 14 AND (STUDY DURATION: 21 MO), Dose: 0, 2.6 MG/KG IN DMSO ON D 1 AND D 3 THEN 0, 5.2 MG/KG IN DMSO ON D 7, 10, 14 AND (STUDY DURATION: 21 MO)) “inactive; negative”; (Species: MOUSE, Strain/Sex: ICR/MALE, Route: INTRAPERITONEAL, Dose: 0, 2.6 MG/KG IN DMSO ON D 1 AND D 3 THEN 0, 5.2 MG/KG IN DMSO ON D 7, 10, 14 AND (STUDY DURATION: 21 MO), Dose: 0, 2.6 MG/KG IN DMSO ON D 1 AND D 3 THEN 0, 5.2 MG/KG IN DMSO ON D 7, 10, 14 AND (STUDY DURATION: 21 MO), Tumor Site: Type of Lesion: LIVER: ADENOMA, CARCINOMA, LUNG: ADENOMA, CARCINOMA, GLANDULAR STOMACH: ADENOCARCINOMA, SUBCUTANEOUS TISSUE: FIBROSARCOM, Tumor Site: Type of Lesion: LIVER: ADENOMA, CARCINOMA, LUNG: ADENOMA, CARCINOMA, GLANDULAR STOMACH: ADENOCARCINOMA, SUBCUTANEOUS TISSUE: FIBROSARCOM) “active; positive”; (Species: RAT, Strain/Sex: F344/MALE, Route: INTRARECTAL, Dose: 0, 5, 10 NANOMOLAR IN 0.5 ML T-E BUFFER AND METHANOL SATURATED WITH ARGON 1/WK FOR 85 WK (STUDY DURATION: 28 MO), Dose: 0, 5, 10 NANOMOLAR IN 0.5 ML T-E BUFFER AND METHANOL SATURATED WITH ARGON 1/WK FOR 85 WK (STUDY DURATION: 28 MO)) “inactive; negative”; (Species: RAT, Strain/Sex: F344/MALE, Route: INTRARECTAL, Dose: 0, 14 MG/KG IN DMSO: EMULPHOR-SALINE 34WK FOR 9 WK THEN 2/WK FOR 12 WK AND 1/WK FOR 50 WK (STUDY DURATION: 92 WK)) “inactive; negative”.
`CC1(C)CN=C(NN=C(/C=C/c2ccc(C(F)(F)F)cc2)/C=C/c2ccc(C(F)(F)F)cc2)NC1`: the carcinogen call (Species: Mouse, Strain/Sex: CD-1/Female (?/Group), Route: Oral, Dose: 0, 25, 50, 100, 200 ppm of 92% hydramethylnon in diet for 18 mo, study duration 18 mo, Dose: 0, 25, 50, 100, 200 ppm of 92% hydramethylnon in diet for 18 mo, study duration 18 mo) is “inactive; negative”; the carcinogen call (Species: Mouse, Strain/Sex: CD-1/Male (?/Group), Route: Oral, Dose: 0, 25, 50, 100, 200 ppm of 92% hydramethylnon in diet for 18 mo, study duration 18 mo, Dose: 0, 25, 50, 100, 200 ppm of 92% hydramethylnon in diet for 18 mo, study duration 18 mo) is “inactive; negative”; the carcinogen call (Species: Rat, Strain/Sex: CD/Female (50/Group), Route: Oral, Dose: 0, 25, 50, 100, 200 ppm in diet for 2 yr, study duration 2 yr, Dose: 0, 25, 50, 100, 200 ppm in diet for 2 yr, study duration 2 yr) was “inactive; negative”; the carcinogen call (Species: Rat, Strain/Sex: CD/Male (50/Group), Route: Oral, Dose: 0, 25, 50, 100, 200 ppm in diet for 2 yr, study duration 2 yr, Dose: 0, 25, 50, 100, 200 ppm in diet for 2 yr, study duration 2 yr) was “inactive; negative”.
In the case of `Cc1ccc2c(c1)[C@H](Nc1nc(N)nc(C(C)F)n1)[C@@H](C)C2` (stereo partly drawn), the carcinogen call runs as follows: (Species: Mouse, Strain/Sex: C57BL/6J/Female (50/Group), Route: Oral, Dose: 0, 8.4, 42, 168 mg/kg/day of 93.14% indaziflam in diet for 18 mo, study duration 18 mo, Dose: 0, 8.4, 42, 168 mg/kg/day of 93.14% indaziflam in diet for 18 mo, study duration 18 mo) “inactive; negative”; (Species: Mouse, Strain/Sex: C57BL/6J/Male (50/Group), Route: Oral, Dose: 0, 6.8, 34, 142 mg/kg/day of 93.14% indaziflam in diet for 18 mo, study duration 18 mo, Dose: 0, 6.8, 34, 142 mg/kg/day of 93.14% indaziflam in diet for 18 mo, study duration 18 mo) “inactive; negative”; (Species: Rat, Strain/Sex: Wistar/Female (60/Group), Route: Oral, Dose: 0, 17, 167, 661 (wks 0-40), 452 (overall) mg/kg/day of 93.14% indaziflam in diet for 2 yr, study duration 2 yr, Dose: 0, 17, 167, 661 (wks 0-40), 452 (overall) mg/kg/day of 93.14% indaziflam in diet for 2 yr, study duration 2 yr) “inactive; negative”; (Species: Rat, Strain/Sex: Wistar/Male (60/Group), Route: Oral, Dose: 0, 12, 118, 414 mg/kg/day of 93.14% indaziflam in diet for 2 yr, study duration 2 yr, Dose: 0, 12, 118, 414 mg/kg/day of 93.14% indaziflam in diet for 2 yr, study duration 2 yr) “inactive; negative”.
Regarding `CC(C)=NO`, the carcinogen call (Species: RAT, Strain/Sex: WISTAR/MALE, Route: ORAL, Dose: 1.0 G/L IN DRINKING WATER 5/WK FOR 18 MO, Tumor Site: Type of Lesion: LIVER: HEPATOCELLULAR ADENOMA) was “active; positive”.
Turning to `CCc1ccccc1`, the carcinogen call runs as follows: (Species: MOUSE, Strain/Sex: B6C3F1/FEMALE, Route: INHALATION, Dose: 0, 75, 250, 750 PPM 6 HR/D 5 D/WK FOR 103 WK (STUDY DURATION: 104 WK), Dose: 0, 75, 250, 750 PPM 6 HR/D 5 D/WK FOR 103 WK (STUDY DURATION: 104 WK), Tumor Site: Type of Lesion: LIVER: HEPATOCELLULAR ADENOMA, HEPATOCELLULAR ADENOMA OR CARCINOMA) “active; positive”; (Species: MOUSE, Strain/Sex: B6C3F1/MALE, Route: INHALATION, Dose: 0, 75, 250, 750 PPM 6 HR/D 5 D/WK FOR 103 WK (STUDY DURATION: 104 WK), Dose: 0, 75, 250, 750 PPM 6 HR/D 5 D/WK FOR 103 WK (STUDY DURATION: 104 WK), Tumor Site: Type of Lesion: LUNG: ALVEOLAR/BRONCHIOLAR ADENOMA, ALVEOLAR/BRONCHIOLAR ADENOMA OR CARCINOMA) “active; positive”; (Species: RAT, Strain/Sex: F344/FEMALE, Route: INHALATION, Dose: 0, 75, 250, 750 PPM 6 HR/D 5 D/WK FOR 104 WK (STUDY DURATION: 105 WK), Dose: 0, 75, 250, 750 PPM 6 HR/D 5 D/WK FOR 104 WK (STUDY DURATION: 105 WK), Tumor Site: Type of Lesion: KIDNEY (RENAL TUBULE): ADENOMA) “active; positive”; (Species: RAT, Strain/Sex: F344/MALE, Route: INHALATION, Dose: 0, 75, 250, 750 PPM 6 HR/D 5 D/WK FOR 104 WK (STUDY DURATION: 105 WK), Dose: 0, 75, 250, 750 PPM 6 HR/D 5 D/WK FOR 104 WK (STUDY DURATION: 105 WK), Tumor Site: Type of Lesion: KIDNEY (RENAL TUBULE): ADENOMA) “active; positive”; (Species: RAT, Strain/Sex: STRAIN-CD/FEMALE, Route: INTRAGASTRIC, Dose: 0, 500 MG/KG IN OLIVE OIL 1/D 4-5 D/WK FOR 104 WK (STUDY DURATION: 104 WK)) “inactive; negative”; (Species: RAT, Strain/Sex: STRAIN-CD/MALE, Route: INTRAGASTRIC, Dose: 0, 500 MG/KG IN OLIVE OIL 1/D 4-5 D/WK FOR 104 WK (STUDY DURATION: 104 WK)) “inactive; negative”.
